Laboratory results from patent US4296112A, “Cephalosporins” (Mitsui Toatsu Chemicals, Inc., priority 1979, dated 1981).
≈ marks a conversion by molar mass, not a printed value.

Assays:
[1] = Acute toxicity (LD50) in mice, intravenous (Experimental Example 2); settings: mouse, in vivo; ICR male mice, intravenous (tail), two weeks observation; estimated; read-out: 50% lethal dose (LD50)
Protocol: Each of the compounds was administered intravenously to the tail of each mouse in a customary manner in a dose of 500 mg/kg and 1000 mg/kg, and over two weeks from then, the states of the mice were observed. It was consequently estimated that the LD50 values of each of these compounds was at least 1000 mg/kg.

[2] = system: Staphylococcus aureus (FDA 209P); test: MIC, agar plate dilution (Referential Example 1, Table 1); type: cell-based; settings: FDA209P, 18 h, read-out: Minimum growth inhibitory concentration (MIC)
Protocol: (§1) The antibacterial activities of the cephalosporins of this invention were measured using the sodium salts of the compounds obtained in Synthesis Examples 1 and 2. The procedure and the results are shown in Referential Example 1.
(§2) Carbenicillin sodium salt (CB-PC) and cephazoline sodum salt (CEZ) were used as controls.
(§3) The antibacterial activities of the test compounds against various Gram-positive and Gram-negative bacteria were determined in a customary manner by the minimum growth inhibitory concentration method (MIC method).
(§4) The experimental procedure was as follows:
(§5) A commercially available heart infusion agar medium (to be abbreviated HIA medium) was used as an assay medium, and a commercially available trypto-soy bouillon medium (to be abbreviated TSB) was used as a medium for the growth of test bacterial strains.
(§6) The test compound was diluted with the melted HIA medium to 100 μg/ml as a maximum concentration, and then serially diluted double. The dilutions were poured into sterilized Petri dishes respectively and allowed to cool and solidify to prepare plates containing the test compound.
(§7) The test bacterial strain was cultivated at 37° C. for 18 to 24 hours in the TSB medium. The culture broth was diluted to 50 to 500 times with a freshly prepared TSB culture medium, and one platinum loopful of the dilution was inoculated in each of the plates containing the test compound.

[3] = system: Pseudomonas aeruginosa (718); test: as above; type: cell-based; settings: HIA medium plate, 37° C., 18 hours, read-out: Minimum growth inhibitory concentration (MIC)
Protocol: as §1, §2, §3, §4, §5, §6, §7

[4] = system: Klebsiella pneumoniae (ATCC 10031); test: as above; type: cell-based; settings: ATCC10031, 18 h, read-out: Minimum growth inhibitory concentration (MIC)
Protocol: as §1, §2, §3, §4, §5, §6, §7

[5] = system: Escherichia coli (K-12); test: as above; type: cell-based; settings: 18 h, read-out: Minimum growth inhibitory concentration (MIC)
Protocol: as §1, §2, §3, §4, §5, §6, §7

[6] = system: Pseudomonas aeruginosa (F1629); test: as above; type: cell-based; settings: HIA medium plate, 37° C., 18 hours, read-out: Minimum growth inhibitory concentration (MIC)
Protocol: as §1, §2, §3, §4, §5, §6, §7

[7] = system: Pseudomonas aeruginosa (S-1); test: as above; type: cell-based; settings: HIA medium plate, 37° C., 18 hours, read-out: Minimum growth inhibitory concentration (MIC)
Protocol: as §1, §2, §3, §4, §5, §6, §7

[8] = system: Streptococcus faecalis (Hoshi); test: as above; type: cell-based; settings: Enterococcus faecalis; HIA medium plate, 37° C., 18 hours; read-out: Minimum growth inhibitory concentration (MIC)
Protocol: as §1, §2, §3, §4, §5, §6, §7

[9] = system: Pseudomonas aeruginosa (IFO-3901); test: as above; type: cell-based; settings: IFO3901, HIA medium plate, 37° C., 18 hours, read-out: Minimum growth inhibitory concentration (MIC)
Protocol: as §1, §2, §3, §4, §5, §6, §7

[10] = system: Enterobacter aerogenes (IFO 3320); test: as above; type: cell-based; settings: Klebsiella aerogenes, IFO3320, 18 h, read-out: Minimum growth inhibitory concentration (MIC)
Protocol: as §1, §2, §3, §4, §5, §6, §7

[11] = system: Pseudomonas maltophilia (F-6257); test: as above; type: cell-based; settings: Stenotrophomonas maltophilia; HIA medium plate, 37° C., 18 hours; read-out: Minimum growth inhibitory concentration (MIC)
Protocol: as §1, §2, §3, §4, §5, §6, §7

[12] = system: Klebsiella pneumoniae (Horino); test: as above; type: cell-based; settings: HIA medium plate, 37° C., 18 hours, read-out: Minimum growth inhibitory concentration (MIC)
Protocol: as §1, §2, §3, §4, §5, §6, §7

[13] = system: Bacillus cereus (IAM 1792); test: as above; type: cell-based; settings: IAM1792, HIA medium plate, 37° C., 18 hours, read-out: Minimum growth inhibitory concentration (MIC)
Protocol: as §1, §2, §3, §4, §5, §6, §7

[14] = system: Proteus morganii (C-39); test: as above; type: cell-based; settings: Morganella morganii; HIA medium plate, 37° C., 18 hours; read-out: Minimum growth inhibitory concentration (MIC)
Protocol: as §1, §2, §3, §4, §5, §6, §7

[15] = system: Pseudomonas aeruginosa (ATCC 10145); test: as above; type: cell-based; settings: ATCC10145, HIA medium plate, 37° C., 18 hours, read-out: Minimum growth inhibitory concentration (MIC)
Protocol: as §1, §2, §3, §4, §5, §6, §7

[16] = system: Klebsiella pneumonia (F-5089); test: as above; type: cell-based; settings: Klebsiella pneumoniae; HIA medium plate, 37° C., 18 hours; read-out: Minimum growth inhibitory concentration (MIC)
Protocol: as §1, §2, §3, §4, §5, §6, §7

[17] = system: Escherichia coli (26RO3); test: as above; type: cell-based; settings: HIA medium plate, 37° C., 18 hours, read-out: Minimum growth inhibitory concentration (MIC)
Protocol: as §1, §2, §3, §4, §5, §6, §7

[18] = system: Serratia marcescens (S-33); test: as above; type: cell-based; settings: HIA medium plate, 37° C., 18 hours, read-out: Minimum growth inhibitory concentration (MIC)
Protocol: as §1, §2, §3, §4, §5, §6, §7

[19] = system: Escherichia coli (NIHJ); test: as above; type: cell-based; settings: 18 h, read-out: Minimum growth inhibitory concentration (MIC)
Protocol: as §1, §2, §3, §4, §5, §6, §7

[20] = system: Salmonella enteritidis (KB-21); test: as above; type: cell-based; settings: Salmonella enterica, HIA medium plate, 37° C., 18 hours, read-out: Minimum growth inhibitory concentration (MIC)
Protocol: as §1, §2, §3, §4, §5, §6, §7

[21] = system: Pseudomonas aeruginosa (NCTC 7244); test: as above; type: cell-based; settings: NCTC7244, HIA medium plate, 37° C., 18 hours, read-out: Minimum growth inhibitory concentration (MIC)
Protocol: as §1, §2, §3, §4, §5, §6, §7

[22] = system: Proteus rettgeri (T-2); test: as above; type: cell-based; settings: Providencia rettgeri; HIA medium plate, 37° C., 18 hours; read-out: Minimum growth inhibitory concentration (MIC)
Protocol: as §1, §2, §3, §4, §5, §6, §7

[23] = system: Staphylococcus aureus (Y-8); test: as above; type: cell-based; settings: HIA medium plate, 37° C., 18 hours, read-out: Minimum growth inhibitory concentration (MIC)
Protocol: as §1, §2, §3, §4, §5, §6, §7

[24] = system: Pseudomonas aeruginosa (NCTC 7244); test: Minimum bactericidal concentration (Referential Example 2, Table 2); type: cell-based; settings: NCTC7244, 18 h, subculture on HIA medium
Protocol: The compounds obtained in Synthesis Examples 1 to 4 were tested in the following manner.
A suspension of Pseudomonas aeruginosa (NCTC 7244) cultivated at 37° C. for 18 hours in a heart infusion broth medium (HIB medium) in a final amount of 10^5, 10^6 and 10^7 cells/ml in an HIB medium containing each of the test compounds which was obtained in the same way as in Referential Example 1 except that the maximum concentration of the test compound was 200 μg/ml. The bacterial strain was cultivated at 37° C. for 18 hours, and the turbidity of the culture broth was evaluated with the naked eye. The minimum concentration of the test compound at which no turbidity was noted was defined as MIC.
The growth of the bacterial strain was evaluated.

SMILES | LD50 at 336 h [1] | MIC [2] | MIC [3] | MIC [4] | MIC [5] | MIC [6] | MIC [7] | MIC [8] | MIC [9] | MIC [10] | MIC [11] | MIC [12] | MIC [13] | MIC [14] | MIC [15] | MIC [16] | MIC [17] | MIC [18] | MIC [19] | MIC [20] | other results
CC(=O)OCC1=C(C(=O)O)N2C(=O)C(NC(=O)[C@H](NC(=O)c3cnc4c(c3O)C(=O)CCC4)c3ccc(O)cc3)C2SC1 (single isomer, unassigned) [Synthesis Example 1, 7-[D-(-)-α-(4-hydroxy-5-oxo-5,6,7,8-tetrahydroquinoline-3-carboxamide)-α-(4-hydroxyphenyl)acetamido]-3-acetoxymethyl-Δ^3-cephem-4-carboxylic acid] | ≥ 1000 mg/kg | 1.56 µg/mL (≈ 2.55 µM) | 12.5 µg/mL (≈ 20.5 µM) | 1.56 µg/mL (≈ 2.55 µM) | 1.56 µg/mL (≈ 2.55 µM) | 12.5 µg/mL (≈ 20.5 µM) | 3.13 µg/mL (≈ 5.13 µM) | 25 µg/mL (≈ 40.9 µM) | 12.5 µg/mL (≈ 20.5 µM) | 0.39 µg/mL (≈ 0.639 µM) | 0.25 µg/mL (≈ 0.409 µM) | 3.13 µg/mL (≈ 5.13 µM) | 25 µg/mL (≈ 40.9 µM) | 12.5 µg/mL (≈ 20.5 µM) | 12.5 µg/mL (≈ 20.5 µM) | 3.13 µg/mL (≈ 5.13 µM) | 3.13 µg/mL (≈ 5.13 µM) | 25 µg/mL (≈ 40.9 µM) | 1.56 µg/mL (≈ 2.55 µM) | 0.78 µg/mL (≈ 1.28 µM) | MIC [21]: 12.5 µg/mL (≈ 20.5 µM); MIC [22]: 3.13 µg/mL (≈ 5.13 µM); MIC [23]: 3.13 µg/mL (≈ 5.13 µM); MBC ([24]; 10^5 cells/ml inoculated): 12.5 µg/mL (≈ 20.5 µM); MBC ([24]; 10^6 cells/ml inoculated): 25 µg/mL (≈ 40.9 µM); MBC ([24]; 10^7 cells/ml inoculated): > 200 µg/mL
Cc1nnc(SCC2=C(C(=O)O)N3C(=O)C(NC(=O)[C@H](NC(=O)c4cnc5c(c4O)C(=O)CCC5)c4ccc(O)cc4)C3SC2)s1 (single isomer, unassigned) [Synthesis Example 2] | ≥ 1000 mg/kg | 0.78 µg/mL (≈ 1.14 µM) | 12.5 µg/mL (≈ 18.3 µM) | 0.78 µg/mL (≈ 1.14 µM) | 0.39 µg/mL (≈ 0.571 µM) | 6.25 µg/mL (≈ 9.15 µM) | 1.56 µg/mL (≈ 2.28 µM) | 12.5 µg/mL (≈ 18.3 µM) | 6.25 µg/mL (≈ 9.15 µM) | 0.39 µg/mL (≈ 0.571 µM) | 3.13 µg/mL (≈ 4.58 µM) | 1.56 µg/mL (≈ 2.28 µM) | 12.5 µg/mL (≈ 18.3 µM) | 6.25 µg/mL (≈ 9.15 µM) | 12.5 µg/mL (≈ 18.3 µM) | 1.56 µg/mL (≈ 2.28 µM) | 1.56 µg/mL (≈ 2.28 µM) | 12.5 µg/mL (≈ 18.3 µM) | 0.78 µg/mL (≈ 1.14 µM) | 0.2 µg/mL (≈ 0.293 µM) | MIC [21]: 12.5 µg/mL (≈ 18.3 µM); MIC [22]: 1.56 µg/mL (≈ 2.28 µM); MIC [23]: 3.13 µg/mL (≈ 4.58 µM); MBC ([24]; 10^5 cells/ml inoculated): 12.5 µg/mL (≈ 18.3 µM); MBC ([24]; 10^6 cells/ml inoculated): 12.5 µg/mL (≈ 18.3 µM); MBC ([24]; 10^7 cells/ml inoculated): > 200 µg/mL
